Laboratory results taken from publication PMC11284788, “NN1213 – A Potent, Long-Acting, and Selective Analog of Human Amylin” (Journal of Medicinal Chemistry, 2024).
Where two headings read alike, the source gives them in different places.

What was measured:
in vivo = conditions: male, beagle, dog, iv
rat AMY3R = biological target: T1, rat AMY3R (Rattus norvegicus, UniProt P32214+Q9JJ73); test: cAMP FlashPlate assay, rat AMY3R; format: cell-based; conditions: for ratio rCTR/rAMY3R: ratio of cAMP EC50 values; for EC50: cAMP (rat receptor assay)
T1 construct: expressed in transfected cells; host or cells: BHK tk-ts 13, transient co-transfection (FuGENE 6)
T1 sequence (P32214 25-479 isoform P32214-2 limits assumed): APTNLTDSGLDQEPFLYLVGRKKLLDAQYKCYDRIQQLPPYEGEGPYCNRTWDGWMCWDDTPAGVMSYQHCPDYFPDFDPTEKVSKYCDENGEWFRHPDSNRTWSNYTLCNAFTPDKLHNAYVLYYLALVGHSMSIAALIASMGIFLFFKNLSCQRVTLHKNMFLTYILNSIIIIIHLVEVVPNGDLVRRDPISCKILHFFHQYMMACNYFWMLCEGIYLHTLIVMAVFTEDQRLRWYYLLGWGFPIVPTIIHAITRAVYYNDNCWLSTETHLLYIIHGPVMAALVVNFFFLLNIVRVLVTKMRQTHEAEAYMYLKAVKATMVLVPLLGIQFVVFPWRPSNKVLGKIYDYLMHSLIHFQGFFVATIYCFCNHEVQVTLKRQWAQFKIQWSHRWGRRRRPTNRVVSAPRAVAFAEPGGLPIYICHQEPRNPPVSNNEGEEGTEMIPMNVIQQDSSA
T1 sequence (Q9JJ73 23-147 partner): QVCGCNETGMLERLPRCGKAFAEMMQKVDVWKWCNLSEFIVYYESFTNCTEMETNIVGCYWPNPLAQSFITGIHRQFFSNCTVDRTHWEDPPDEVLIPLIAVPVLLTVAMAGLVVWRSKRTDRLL

rAMY3R = biological target: T2, rAMY3R (Rattus norvegicus, UniProt P32214+Q9JJ73); test: Whole-cell competition binding, rAMY3R; set-up: expressed in transfected cells; host or cells: BHK tk-ts 13, transient co-transfection (FuGENE 6); conditions: IC50 for the CTR divided by that of the AMYR, rat receptors
T2 sequence (P32214 25-479 isoform P32214-2 limits assumed): T1 sequence (P32214 25-479 isoform P32214-2 limits assumed)
T2 sequence (Q9JJ73 23-147 partner): T1 sequence (Q9JJ73 23-147 partner)

rats = test: Acute food intake in rats; format: in vivo, rat
hCTR [1] = biological target: T3, hCTR (Homo sapiens, UniProt P30988); test: cAMP-responsive element luciferase reporter assay, human CTR; format: cell-based; conditions: luciferase (human receptor assay); for hCTR pEC50: Tables S12 and S14
T3 sequence (P30988 25-474): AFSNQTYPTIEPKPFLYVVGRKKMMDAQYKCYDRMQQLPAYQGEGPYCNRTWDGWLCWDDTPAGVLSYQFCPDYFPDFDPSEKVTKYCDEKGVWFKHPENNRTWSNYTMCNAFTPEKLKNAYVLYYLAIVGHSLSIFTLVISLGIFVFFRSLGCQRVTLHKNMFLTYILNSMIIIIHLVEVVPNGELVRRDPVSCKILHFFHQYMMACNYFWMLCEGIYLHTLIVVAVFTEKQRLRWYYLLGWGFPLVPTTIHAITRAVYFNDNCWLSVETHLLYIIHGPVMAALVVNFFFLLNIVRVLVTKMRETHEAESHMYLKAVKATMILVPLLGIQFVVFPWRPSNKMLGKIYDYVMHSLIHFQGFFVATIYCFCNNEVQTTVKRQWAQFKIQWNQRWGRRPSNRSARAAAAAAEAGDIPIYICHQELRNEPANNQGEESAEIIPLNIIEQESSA

hCTR [2] = biological target: T3, hCTR; test: scintillation proximity binding assay, hCTR membranes; set-up: expressed in transfected cells; host or cells: BHK tk-ts 13, transient (FuGENE 6); membranes for the SPA, whole cells for the species-specific assays
rat CTR = biological target: T4, rat CTR (Rattus norvegicus, UniProt P32214); test: cAMP FlashPlate assay, rat CTR; format: cell-based; conditions: cAMP (rat receptor assay)
T4 construct: expressed in transfected cells; host or cells: BHK tk-ts 13, transient (FuGENE 6)
T4 sequence (P32214 25-479 isoform P32214-2 limits assumed): T1 sequence (P32214 25-479 isoform P32214-2 limits assumed)

[3] = Tables S12 and S14, read-out: rAMY3R pEC50 (converted)
[4] = transiently transfected BHK tk-ts 13 cells, FlashPlate, 30 min room temperature, 2% HSA, read-out: rAMY3R EC50
[5] = single sc injection of 30 nmol/kg, relative to vehicle, mean ± SEM, n = 5–7 per group
[6] = Tables S12 and S14, read-out: rCTR pEC50 (converted)
[7] = transiently transfected BHK tk-ts 13 cells, FlashPlate, 30 min room temperature, 2% HSA, read-out: rCTR EC50

## CC[C@H](C)[C@H](NC(=O)[C@H](C)NC(=O)CNC(=O)[C@H](Cc1ccccc1)NC(=O)[C@H](CC(N)=O)NC(=O)[C@@H]1CCCN1C(=O)[C@H](CO)NC(=O)[C@H](CO)NC(=O)[C@H](Cc1c[nH]cn1)NC(=O)[C@H](CCCNC(=N)N)NC(=O)[C@H](CC(C)C)NC(=O)[C@H](Cc1ccccc1)NC(=O)[C@H](CC(=O)O)NC(=O)[C@H](C)NC(=O)[C@H](CC(C)C)NC(=O)[C@H](CCCNC(=N)N)NC(=O)[C@H](CCC(N)=O)NC(=O)[C@@H](NC(=O)[C@H](C)NC(=O)[C@@H]1CSSC[C@H](NC(=O)[C@@H](N)CCCCNC(=O)CC[C@H](NC(=O)CC[C@H](NC(=O)CCCCCCCCCCCCCCCCCCC(=O)O)C(=O)O)C(=O)O)C(=O)N[C@@H](CC(N)=O)C(=O)N[C@@H]([C@@H](C)O)C(=O)N[C@@H](C)C(=O)N[C@@H]([C@@H](C)O)C(=O)N1)[C@@H](C)O)C(=O)N1CCC[C@H]1C(=O)N[C@@H](CO)C(=O)N[C@@H](CO)C(=O)N[C@H](C(=O)N[C@@H](CC(N)=O)C(=O)N[C@H](C(=O)NCC(=O)N[C@@H](CO)C(=O)N[C@@H](CCCNC(=N)N)C(=O)N[C@H](C(=O)N[C@@H](Cc1ccc(O)cc1)C(N)=O)[C@@H](C)O)C(C)C)[C@@H](C)O [NN1213]
In vivo
  half-life: 76 h
Rat AMY3R
  ratio rCTR/rAMY3R: 391
rAMY3R
  Ratio CTR/AMY3R (rat, binding): 52
rats; single sc dose 3 nmol/kg, 24–48 h, compared to controls
  food intake reduction, following 24 h: 15%
rats; single sc dose 3 nmol/kg, compared to controls
  food intake reduction, first 24 h: 25%
rats; single sc dose 100 nmol/kg
  food intake reduction, first 24 h: 70%

## CC[C@H](C)[C@H](NC(=O)[C@H](C)NC(=O)CNC(=O)[C@H](Cc1ccccc1)NC(=O)[C@H](CC(N)=O)NC(=O)[C@@H]1CCCN1C(=O)[C@H](CO)NC(=O)[C@H](CO)NC(=O)[C@H](Cc1c[nH]cn1)NC(=O)[C@H](CCCNC(=N)N)NC(=O)[C@H](CC(C)C)NC(=O)[C@H](Cc1ccccc1)NC(=O)[C@H](CC(N)=O)NC(=O)[C@H](C)NC(=O)[C@H](CC(C)C)NC(=O)[C@H](CCCNC(=N)N)NC(=O)[C@H](CCC(N)=O)NC(=O)[C@@H](NC(=O)[C@H](C)NC(=O)[C@@H]1CSSC[C@H](NC(=O)[C@H](CCCCN)NC(=O)CC[C@H](NC(=O)CCCCCCCCCCCCCCCCCCC(=O)O)C(=O)O)C(=O)N[C@@H](CC(N)=O)C(=O)N[C@@H]([C@@H](C)O)C(=O)N[C@@H](C)C(=O)N[C@@H]([C@@H](C)O)C(=O)N1)[C@@H](C)O)C(=O)N1CCC[C@H]1C(=O)N[C@@H](CO)C(=O)N[C@@H](CO)C(=O)N[C@H](C(=O)N[C@@H](CC(N)=O)C(=O)N[C@H](C(=O)NCC(=O)N[C@@H](CO)C(=O)N[C@@H](CCCCN)C(=O)N[C@H](C(=O)N[C@@H](Cc1ccc(O)cc1)C(N)=O)[C@@H](C)O)C(C)C)[C@@H](C)O [Peptide 13]
hCTR [1]
  hCTR pEC50: 8.58
hCTR [1]; BHK cells stably expressing hCTR and CRE-luciferase, 3 h, 37 °C, 10% FBS, read-out: hCTR EC50
  EC50: 2.61 nM
Rat AMY3R; [3]
  EC50: 0.603 nM
Rat AMY3R; [4]
  EC50: 0.599 nM
Rat AMY3R
  ratio rCTR/rAMY3R: 50
hCTR [2]; SPA binding assay, Tables S13 and S15
  hCTR pIC50: 7.13
rats; [5]
  Acute food intake reduction 0–24 h: 37 ± 7%
  Acute food intake reduction 24–48 h: 25 ± 7%
Rat CTR; [6]
  EC50: 30.2 nM
Rat CTR; [7]
  EC50: 30.4 nM

## CC[C@H](C)[C@H](NC(=O)[C@H](C)NC(=O)CNC(=O)[C@H](Cc1ccccc1)NC(=O)[C@H](CC(N)=O)NC(=O)[C@@H]1CCCN1C(=O)[C@H](CO)NC(=O)[C@H](CO)NC(=O)[C@H](Cc1c[nH]cn1)NC(=O)[C@H](CCCNC(=N)N)NC(=O)[C@H](CC(C)C)NC(=O)[C@H](Cc1ccccc1)NC(=O)[C@H](CC(N)=O)NC(=O)[C@H](C)NC(=O)[C@H](CC(C)C)NC(=O)[C@H](CCCNC(=N)N)NC(=O)[C@H](CCC(N)=O)NC(=O)[C@@H](NC(=O)[C@H](C)NC(=O)[C@@H]1CSSC[C@H](NC(=O)[C@@H](N)CCCCNC(=O)CC[C@H](NC(=O)CCCCCCCCCCCCCCCCCCC(=O)O)C(=O)O)C(=O)N[C@@H](CC(N)=O)C(=O)N[C@@H]([C@@H](C)O)C(=O)N[C@@H](C)C(=O)N[C@@H]([C@@H](C)O)C(=O)N1)[C@@H](C)O)C(=O)N1CCC[C@H]1C(=O)N[C@@H](CO)C(=O)N[C@@H](CO)C(=O)N[C@H](C(=O)N[C@@H](CC(N)=O)C(=O)N[C@H](C(=O)NCC(=O)N[C@@H](CO)C(=O)N[C@@H](CCCCN)C(=O)N[C@H](C(=O)N[C@@H](Cc1ccc(O)cc1)C(N)=O)[C@@H](C)O)C(C)C)[C@@H](C)O [Peptide 14]
hCTR [1]
  hCTR pEC50: 8.26
Rat AMY3R; [3]
  EC50: 0.759 nM
Rat AMY3R; [4]
  EC50: 0.754 nM
Rat AMY3R
  ratio rCTR/rAMY3R: 49
hCTR [2]; SPA binding assay, Tables S13 and S15, read-out: hCTR pIC50 (converted)
  IC50: 42.7 nM
hCTR [2]; SPA, BHK cell membranes, 125I-Calcitonin 75 pM, 120 min 25 °C, read-out: hCTR IC50
  IC50: 42.3 nM
rats; [5]
  Acute food intake reduction 24–48 h: 15 ± 4%
Rat CTR; [6]
  EC50: 37.2 nM
Rat CTR; [7]
  EC50: 37.2 nM
